Read-outs that look alike come from different tables or passages of the source.
Legend:
Format in all cases: biochemical
CSNK1D = CSNK1D (Homo sapiens (Human), UniProt P48730); test: CSNK1D Assay (ADP-Glo, 1 μM ATP); conditions: median, read-out: CSNK1D IC50 [mol/l] (median)
Outline: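 Enzyme preincubated with compound 15 min at 22° C in 50 mM HEPES pH 7.5 buffer with 10 mM MgCl2, 1 mM DTT; kinase reaction run at 1 μM ATP with biotinylated peptide substrate. ADP formed was detected by ADP-Glo luminescence as the measure of activity.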

CSNK1A1 = CSNK1A1 (Homo sapiens (Human), UniProt P48729); test: CSNK1A1 Assay 2 (ADP-Glo, 1 μM ATP); conditions: median, read-out: CSNK1A1 Assay 2 IC50 [mol/l] (median)
CSNK1A1, sequence (P48729 whole entry): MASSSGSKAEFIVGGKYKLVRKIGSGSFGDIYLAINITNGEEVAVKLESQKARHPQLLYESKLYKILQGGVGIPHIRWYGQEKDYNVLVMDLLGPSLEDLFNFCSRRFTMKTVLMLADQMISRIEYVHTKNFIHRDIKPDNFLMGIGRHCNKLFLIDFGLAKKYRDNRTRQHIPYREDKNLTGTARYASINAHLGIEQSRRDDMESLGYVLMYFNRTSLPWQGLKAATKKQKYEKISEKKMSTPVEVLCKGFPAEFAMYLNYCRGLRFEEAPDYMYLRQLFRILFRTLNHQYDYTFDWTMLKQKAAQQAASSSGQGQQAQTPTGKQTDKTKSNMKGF
Outline: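 Enzyme (~0.0375 ng/μL) preincubated 15 min at 22° C with compound in HEPES pH 7.5 buffer, then reacted with 1 μM ATP and biotin-Ahx-KRRRAL-pS-VASLPGL peptide. ADP product measured by ADP-Glo luminescence after 1 h ATP depletion and 1 h detection at 22° C.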

[1] = biological target: wild-type Epidermal Growth Factor Receptor (EGFR) (Homo sapiens (Human), UniProt P00533); test: WT-EGFR Kinase Assay (TR-FRET, 2 mM ATP)
wild-type Epidermal Growth Factor Receptor (EGFR), sequence (P00533 669-1210): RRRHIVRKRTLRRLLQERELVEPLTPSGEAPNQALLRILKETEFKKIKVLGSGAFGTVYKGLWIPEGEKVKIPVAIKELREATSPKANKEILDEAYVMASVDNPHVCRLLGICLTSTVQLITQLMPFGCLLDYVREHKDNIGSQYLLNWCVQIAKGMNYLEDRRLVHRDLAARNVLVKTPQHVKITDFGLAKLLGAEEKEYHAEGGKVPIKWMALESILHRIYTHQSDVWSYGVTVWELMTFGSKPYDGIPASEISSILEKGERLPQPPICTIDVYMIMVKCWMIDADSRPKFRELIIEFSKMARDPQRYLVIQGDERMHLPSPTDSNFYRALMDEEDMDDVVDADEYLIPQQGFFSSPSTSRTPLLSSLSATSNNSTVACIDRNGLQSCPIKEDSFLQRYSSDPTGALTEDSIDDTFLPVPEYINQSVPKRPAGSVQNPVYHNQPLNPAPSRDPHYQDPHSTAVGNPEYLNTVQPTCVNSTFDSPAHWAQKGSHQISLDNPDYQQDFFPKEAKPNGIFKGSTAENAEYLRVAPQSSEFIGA
Outline: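 GST-tagged human EGFR (R669–A1210, Sf9-expressed) preincubated 15 min at 22° C with compound in pH 7.0 Hepes/MgCl2 buffer, then reacted at 2 mM ATP with a biotinylated peptide substrate. Phosphorylation detected by TR-FRET (streptavidin-XL665, Tb-cryptate anti-phosphotyrosine) as the 665/620 nm emission ratio.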

[2] = EGFR Wildtyp 2 mM ATP IC50 [mol/l] (median), median or individual measurements
[3] = read-out: EGFR Wildtyp 2 mM ATP IC50 [mol/l] (median), median or individual measurements

CSNK1D, sequence (P48730 whole entry): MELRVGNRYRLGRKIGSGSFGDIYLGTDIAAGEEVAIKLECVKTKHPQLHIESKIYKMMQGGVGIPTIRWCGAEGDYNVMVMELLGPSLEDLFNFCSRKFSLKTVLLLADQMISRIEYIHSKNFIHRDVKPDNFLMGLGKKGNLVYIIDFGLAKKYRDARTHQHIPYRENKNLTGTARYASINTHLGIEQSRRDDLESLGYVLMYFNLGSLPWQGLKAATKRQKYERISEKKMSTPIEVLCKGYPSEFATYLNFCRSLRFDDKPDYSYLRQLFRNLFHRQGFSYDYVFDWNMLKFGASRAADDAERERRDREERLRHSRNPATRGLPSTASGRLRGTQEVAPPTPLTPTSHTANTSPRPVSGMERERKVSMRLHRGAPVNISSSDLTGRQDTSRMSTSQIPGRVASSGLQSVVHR

SMILES	IC50 (CSNK1D) [nM]	IC50 (CSNK1A1) [nM]	IC50 [1, 2] [nM]	IC50 [1, 3] [nM]
Cc1ncc(-c2c(-c3ccnc(NC(=O)C(CC(F)F)c4ccc(F)cc4)c3)[nH]c3c2C(=O)N(C)CC3)s1 (racemic) [Example 129, 4,4-difluoro-2-(4-fluorophenyl)-N-{4-[5-methyl-3-(2-methyl-1,3-thiazol-5-yl)-4-oxo-4,5,6,7-tetrahydro-1H-pyrrolo[3,2-c]pyridin-2-yl]pyridin-2-yl}butanamide]	13	15	> 20000	–
CC(C(=O)Nc1cc(-c2[nH]c3ccn(C)c(=O)c3c2-c2cccs2)ccn1)c1ccc(F)cc1 (racemic) [Example 130, 2-(4-fluorophenyl)-N-{4-[5-methyl-4-oxo-3-(2-thienyl)-4,5-dihydro-1H-pyrrolo[3,2-c]pyridin-2-yl]pyridin-2-yl}propanamide]	3.9	2.4	> 20000	–
CC(C(=O)Nc1cc(-c2[nH]c3ccn(C)c(=O)c3c2-c2ccsc2)ccn1)c1ccc(F)cc1 (racemic) [Example 131, 2-(4-fluorophenyl)-N-{4-[5-methyl-4-oxo-3-(3-thienyl)-4,5-dihydro-1H-pyrrolo[3,2-c]pyridin-2-yl]pyridin-2-yl}propanamide]	10	7	> 20000	–
Cc1c(-c2ccnc(NC(=O)C(C)c3ccc(F)cc3)c2)[nH]c2ccn(C)c(=O)c12 (racemic) [Example 132, N-[4-(3,5-dimethyl-4-oxo-4,5-dihydro-1H-pyrrolo[3,2-c]pyridin-2-yl)pyridin-2-yl]-2-(4-fluorophenyl)propanamide]	11	6.3	> 20000	–
Cn1ccc2[nH]c(-c3ccnc(NC(=O)C(CC(F)F)c4ccc(F)cc4)c3)c(-c3ccc(Cl)s3)c2c1=O (racemic) [Example 133, N-{4-[3-(5-chloro-2-thienyl)-5-methyl-4-oxo-4,5-dihydro-1H-pyrrolo[3,2-c]pyridin-2-yl]pyridin-2-yl}-4,4-difluoro-2-(4-fluorophenyl)butanamide]	4.8	2.3	> 20000	–
O=C(Nc1cc(-c2[nH]c3ccn(C4CC4)c(=O)c3c2-c2ccc(F)cc2)ccn1)C(CC(F)F)c1ccc(F)cc1 (racemic) [Example 134, N-{4-[5-cyclopropyl-3-(4-fluorophenyl)-4-oxo-4,5-dihydro-1H-pyrrolo[3,2-c]pyridin-2-yl]pyridin-2-yl}-4,4-difluoro-2-(4-fluorophenyl)butanamide]	7	5.5	> 20000	–
O=C(Nc1cc(-c2[nH]c3ccn(C4CC4)c(=O)c3c2-c2ccccc2)ccn1)C(CC(F)F)c1ccc(F)cc1 (racemic) [Example 137, N-[4-(5-cyclopropyl-4-oxo-3-phenyl-4,5-dihydro-1H-pyrrolo[3,2-c]pyridin-2-yl)pyridin-2-yl]-4,4-difluoro-2-(4-fluorophenyl)butanamide]	3	2.6	> 20000	–
CN1CCc2[nH]c(-c3ccnc(NC(=O)C(CC(F)F)c4ccc(F)cc4)c3)c(-c3cscn3)c2C1=O (racemic) [Example 138, 4,4-difluoro-2-(4-fluorophenyl)-N-{4-[5-methyl-4-oxo-3-(1,3-thiazol-4-yl)-4,5,6,7-tetrahydro-1H-pyrrolo[3,2-c]pyridin-2-yl]pyridin-2-yl}butanamide]	8.8	8.9	> 20000	–
CN1CCc2[nH]c(-c3ccnc(NC(=O)C(CC(F)F)c4ccc(F)cc4)c3)c(-c3ccc(F)cc3)c2C1=O (racemic) [Example 139, 4,4-difluoro-2-(4-fluorophenyl)-N-{4-[3-(4-fluorophenyl)-5-methyl-4-oxo-4,5,6,7-tetrahydro-1H-pyrrolo[3,2-c]pyridin-2-yl]pyridin-2-yl}butanamide]	5.5	4.2	> 20000	–
CC(C(=O)Nc1cc(-c2[nH]c3ccn(C)c(=O)c3c2-c2ccc(F)nc2)ccn1)c1ccc(F)cc1 (racemic) [Example 145, 2-(4-fluorophenyl)-N-{4-[3-(6-fluoropyridin-3-yl)-5-methyl-4-oxo-4,5-dihydro-1H-pyrrolo[3,2-c]pyridin-2-yl]pyridin-2-yl}propanamide]	10	9.7	> 20000	–
Cn1cc(CC(F)F)c2[nH]c(-c3ccnc(NC(=O)C(CC(F)F)c4ccc(F)cc4)c3)c(-c3ccccc3)c2c1=O (racemic) [Example 147, (rac)-N-{4-[7-(2,2-difluoroethyl)-5-methyl-4-oxo-3-phenyl-4,5-dihydro-1H-pyrrolo[3,2-c]pyridin-2-yl]pyridin-2-yl}-4,4-difluoro-2-(4-fluorophenyl)butanamide]	2.9	4.3	> 20000	–
CN1CC(C)(C)c2[nH]c(-c3ccnc(NC(=O)C(CC(F)F)c4ccc(F)cc4)c3)c(-c3ccccc3)c2C1=O (racemic) [Example 150, (rac)-4,4-difluoro-2-(4-fluorophenyl)-N-[4-(5,7,7-trimethyl-4-oxo-3-phenyl-4,5,6,7-tetrahydro-1H-pyrrolo[3,2-c]pyridin-2-yl)pyridin-2-yl]butanamide]	3.8	4.1	> 20000	–
CC(C(=O)Nc1cc(-c2[nH]c3c(c2-c2ccccc2)C(=O)N(C)CC3)ccn1)c1ccncc1 (racemic) [Example 153, (Rac)-N-[4-(5-methyl-4-oxo-3-phenyl-4,5,6,7-tetrahydro-1H-pyrrolo[3,2-c]pyridin-2-yl)pyridin-2-yl]-2-(pyridin-4-yl)propanamide]	2.4	2	> 20000	–
O=C(Nc1cc(-c2[nH]c3c(c2-c2ccccc2)C(=O)N(C2CC2)CC3)ccn1)C(CC(F)F)c1ccc(F)cc1 (racemic) [Example 156, (2RS)—N-(4-(5-cyclopropyl-4-oxo-3-phenyl-4,5,6,7-tetrahydro-1H-pyrrolo[3,2-c]pyridin-2-yl)pyridin-2-yl)-4,4-difluoro-2-(4-fluorophenyl)butanamide]	3.1	2.3	> 20000	–
O=C(Nc1cc(-c2[nH]c3ccn(C4CC4)c(=O)c3c2-c2ccccn2)ccn1)C(CC(F)F)c1ccc(F)cc1 (racemic) [Example 160, (2RS)—N-{4-[5-cyclopropyl-4-oxo-3-(pyridin-2-yl)-4,5-dihydro-1H-pyrrolo[3,2-c]pyridin-2-yl]pyridin-2-yl}-4,4-difluoro-2-(4-fluorophenyl)butanamide]	10	8.7	> 20000	–
O=C(Nc1cc(-c2[nH]c3c(Cl)cn(C4CC4)c(=O)c3c2-c2ccc(F)cc2)ccn1)C(CC(F)F)c1ccc(F)cc1 (racemic) [Example 161, (2RS)—N-{4-[7-chloro-5-cyclopropyl-3-(4-fluorophenyl)-4-oxo-4,5-dihydro-1H-pyrrolo[3,2-c]pyridin-2-yl]pyridin-2-yl}-4,4-difluoro-2-(4-fluorophenyl)butanamide]	11	20	> 20000	–
Cn1cc(CC(F)(F)F)c2[nH]c(-c3ccnc(NC(=O)C(CC(F)F)c4ccc(F)cc4)c3)c(-c3ccccn3)c2c1=O (racemic) [Example 162, (2RS)-4,4-difluoro-2-(4-fluorophenyl)-N-{4-[5-methyl-4-oxo-3-(pyridin-2-yl)-7-(2,2,2-trifluoroethyl)-4,5-dihydro-1H-pyrrolo[3,2-c]pyridin-2-yl]pyridin-2-yl}butanamide]	12	14	> 20000	–
CN1CCc2[nH]c(-c3ccnc(NC(=O)C(CC(F)F)c4ccc(F)cc4)c3)c(-c3ccc(F)cc3F)c2C1=O (single isomer, unassigned) [Example 67, N-{4-[3-(2,4-difluorophenyl)-5-methyl-4-oxo-4,5,6,7-tetrahydro-1H-pyrrolo[3,2-c]pyridin-2-yl]pyridin-2-yl}-4,4-difluoro-2-(4-fluorophenyl)butanamide]	8.6	16	> 20000	–
CN1CCc2[nH]c(-c3ccnc(NC(=O)C(CC(F)F)c4ccc(F)cc4)c3)c(-c3ccc(F)cc3F)c2C1=O (single isomer, unassigned) [Example 68, N-{4-[3-(2,4-difluorophenyl)-5-methyl-4-oxo-4,5,6,7-tetrahydro-1H-pyrrolo[3,2-c]pyridin-2-yl]pyridin-2-yl}-4,4-difluoro-2-(4-fluorophenyl)butanamide]	5.6	4.1	–	> 20000
CC(C(=O)Nc1cc(-c2[nH]c3c(c2-c2ccc(F)cc2F)C(=O)N(C)CC3)ccn1)c1ccc(F)cc1 (single isomer, unassigned) [Example 70, N-{4-[3-(2,4-difluorophenyl)-5-methyl-4-oxo-4,5,6,7-tetrahydro-1H-pyrrolo[3,2-c]pyridin-2-yl]pyridin-2-yl}-2-(4-fluorophenyl)propanamide]	7.6	16	> 20000	–
CC(C(=O)Nc1cc(-c2[nH]c3c(c2-c2ccc(F)cc2F)C(=O)N(C)CC3)ccn1)c1ccc(F)cc1 (single isomer, unassigned) [Example 71, N-{4-[3-(2,4-difluorophenyl)-5-methyl-4-oxo-4,5,6,7-tetrahydro-1H-pyrrolo[3,2-c]pyridin-2-yl]pyridin-2-yl}-2-(4-fluorophenyl)propanamide]	2.1	1.7	–	> 20000

Reference: patent US20230322767A1, “ARYL SUBSTITUTED PYRROLO-PYRIDINONES AND THERAPEUTIC USES THEREOF” (Bayer Aktiengesellschaft, priority 2020, published 2023)
